The record followed here is article PMC5624964, “ORP5 and ORP8 bind phosphatidylinositol-4, 5-biphosphate (PtdIns(4,5)P2) and regulate its level at the plasma membrane” (Nature Communications, 2017).

Common to all, as to assay: isothermal titration calorimetry
Common to all, as to assay type: binding

Test [1] deals with T1, ORP8 ORD (Homo sapiens, UniProt Q9BZF1).
T1 construct: gene OSBPL8; ORD domain 400-778 of ORP8L, His6-ubiquitin tag removed by DUB without extra N-terminal residues, E. coli
T1 sequence (Q9BZF1 400-778): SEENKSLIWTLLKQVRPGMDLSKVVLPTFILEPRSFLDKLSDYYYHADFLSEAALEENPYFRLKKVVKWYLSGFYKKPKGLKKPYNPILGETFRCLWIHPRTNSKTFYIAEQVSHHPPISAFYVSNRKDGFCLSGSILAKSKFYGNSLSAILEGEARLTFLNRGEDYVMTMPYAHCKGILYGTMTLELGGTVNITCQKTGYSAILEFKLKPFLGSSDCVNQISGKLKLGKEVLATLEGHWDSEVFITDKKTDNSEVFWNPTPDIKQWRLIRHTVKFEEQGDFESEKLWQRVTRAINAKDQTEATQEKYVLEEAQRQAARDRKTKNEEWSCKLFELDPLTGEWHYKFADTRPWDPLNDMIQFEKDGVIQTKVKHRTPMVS
An excerpt:
isothermal titration calorimetry on ORP8 ORD

Test [2] deals with T2, ORP5 ORD (Homo sapiens, UniProt Q9H0X9).
T2 construct: gene OSBPL5; ORD domain 364-746 of ORP5A, His6-ubiquitin tag removed by DUB without extra N-terminal residues, E. coli
T2 sequence (Q9H0X9 364-746): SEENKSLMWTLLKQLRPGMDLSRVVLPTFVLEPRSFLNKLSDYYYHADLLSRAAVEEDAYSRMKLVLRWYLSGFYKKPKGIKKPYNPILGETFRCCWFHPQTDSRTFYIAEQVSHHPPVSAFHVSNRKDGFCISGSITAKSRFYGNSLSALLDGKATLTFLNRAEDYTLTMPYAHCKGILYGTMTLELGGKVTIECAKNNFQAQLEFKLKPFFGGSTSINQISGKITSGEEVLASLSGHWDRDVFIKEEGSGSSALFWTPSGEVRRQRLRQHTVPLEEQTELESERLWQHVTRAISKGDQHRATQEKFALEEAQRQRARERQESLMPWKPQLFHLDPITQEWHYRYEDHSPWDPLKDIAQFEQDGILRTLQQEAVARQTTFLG
An excerpt: isothermal titration calorimetry on ORP5 ORD

Test [3] concerns the target T3, ORP8 PH (Homo sapiens, UniProt Q9BZF1).
T3 construct: gene OSBPL8; PH domain 149-265 of ORP8L, synthetic gene, N-terminal MGSSGSSG and C-terminal RSGPSSGLEEF linkers, GST tag cleaved by thrombin, E. coli
T3 sequence (Q9BZF1 149-265): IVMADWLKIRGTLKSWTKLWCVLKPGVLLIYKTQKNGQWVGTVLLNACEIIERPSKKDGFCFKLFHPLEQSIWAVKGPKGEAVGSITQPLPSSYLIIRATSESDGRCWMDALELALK
The source says: isothermal titration calorimetry on ORP8 PH

The target of test [4] is T4, ORP5 PH (Homo sapiens, UniProt Q9H0X9).
T4 construct: gene OSBPL5; PH domain 127-243 of ORP5A, synthetic gene, N-terminal MGSSGSSG and C-terminal RSGPSSGLEEF linkers, GST tag cleaved by thrombin, E. coli
T4 sequence (Q9H0X9 127-243): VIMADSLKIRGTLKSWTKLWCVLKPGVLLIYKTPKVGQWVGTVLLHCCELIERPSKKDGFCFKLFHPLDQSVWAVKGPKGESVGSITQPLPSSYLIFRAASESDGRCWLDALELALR
The source says:
isothermal titration calorimetry on ORP5 PH

The mark [5] stands for this setting: water-soluble diC8 lipid, 25 °C, 50 mM Tris pH 8.0, 100 mM NaCl.

Like-named read-outs stand apart in the source and are kept apart here.

With `CCCCCCCC(=O)OC[C@H](COP(=O)(O)O[C@@H]1[C@H](O)[C@H](OP(=O)(O)O)[C@@H](O)[C@H](O)[C@H]1O)OC(=O)CCCCCCC` [PtdIns(3)P], the Kd in test [1] came out at 1700 ± 800 nM; in test [2], 9 ± 2.7 µM.
As to `CCCCCCCC(=O)OC[C@H](COP(=O)(O)O[C@H]1[C@H](O)[C@@H](O)[C@H](OP(=O)(O)O)[C@@H](OP(=O)(O)O)[C@H]1O)OC(=O)CCCCCCC` [PtdIns(3,4)P2], the Kd in test [3] came out at 2.9 ± 0.1 µM; in test [1], 2500 ± 600 nM; in test [2] (setting [5]), 0.8 ± 0.8 µM; in test [4] (setting [5]), 16.3 ± 0.4 µM.
Turning to `CCCCCCCC(=O)OC[C@H](COP(=O)(O)O[C@H]1[C@H](O)[C@@H](OP(=O)(O)O)[C@H](OP(=O)(O)O)[C@@H](OP(=O)(O)O)[C@H]1O)OC(=O)CCCCCCC` [PtdIns(3,4,5)P3], the Kd came out at 11.8 ± 3.2 µM in test [3], 1.1 ± 0.3 µM in test [2] (setting [5]) and 5.3 ± 2.4 µM in test [4] (setting [5]).
For the molecule `CCCCCCCC(=O)OC[C@H](COP(=O)(O)O[C@H]1[C@H](O)[C@@H](O)[C@H](OP(=O)(O)O)[C@@H](O)[C@H]1O)OC(=O)CCCCCCC` [PtdIns(4)P], the values for the Kd in test [1] (setting [5]) and in test [2] (setting [5]) were 2300 ± 300 nM and 6.7 ± 3.3 µM, respectively.
On to `CCCCCCCC(=O)OC[C@H](COP(=O)(O)O[C@@H]1[C@H](O)[C@H](O)[C@@H](OP(=O)(O)O)[C@H](OP(=O)(O)O)[C@H]1O)OC(=O)CCCCCCC` [PtdIns(4,5)P2], for which the Kd in test [3] was found to be 5.5 ± 1.2 µM; in test [1], 5300 ± 400 nM; in test [2], 6.7 ± 1.5 µM; in test [4], 7.3 ± 0.5 µM.
As for `CCCCCCCC(=O)OC[C@H](COP(=O)(O)O[C@H]1[C@H](O)[C@@H](OP(=O)(O)O)[C@H](O)[C@@H](O)[C@H]1O)OC(=O)CCCCCCC` [PtdIns(5)P], in test [1], the affinity, expressed as Kd, was 5900 ± 4100 nM.

As usually defined, the Kd is the equilibrium constant for the complex coming apart. The low end stands for a tighter complex, the high end for a looser complex.
